Values after ≈ are worked out from the molar mass of the structure shown. Where two headings read alike, the source gives them in different places.
Key:
human GPR119 receptor = molecular target: T1, human GPR119 receptor (Homo sapiens, UniProt Q8TDV5); test: Activity test for human GPR119 receptor (GeneBLAzer T-Rex GPR 119 CHO-K1 DA cells); type: cell-based; settings: for EC50: human GPR119 receptor expressing CHO-K1 cells, 5 hours treatment, read-out: hGPR119 EC50; for activity for human GPR119 receptor (in words): judgement on the EC50 values of Table 11
T1 construct: host or cells: GeneBLAzer T-Rex GPR 119 CHO-K1 DA cells (CHO-K1)
T1 sequence (Q8TDV5 1-335): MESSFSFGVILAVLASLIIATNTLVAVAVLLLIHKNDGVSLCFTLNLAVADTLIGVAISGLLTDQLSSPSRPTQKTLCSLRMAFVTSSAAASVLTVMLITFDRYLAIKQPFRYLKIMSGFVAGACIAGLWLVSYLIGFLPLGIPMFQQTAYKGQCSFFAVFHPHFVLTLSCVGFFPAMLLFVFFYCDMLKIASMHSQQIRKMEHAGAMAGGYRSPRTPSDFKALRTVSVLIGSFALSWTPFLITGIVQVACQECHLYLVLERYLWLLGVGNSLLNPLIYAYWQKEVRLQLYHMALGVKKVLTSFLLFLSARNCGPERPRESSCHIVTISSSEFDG
Procedure: 1. Human GPR119 Receptor Cell
As a human GPR119 receptor expression cell for this test, the cell line “GeneBLAzer™ T-Rex GPR 119 CHO-K1 DA cells” that is commercially available from Invitrogen, was used. The cell was incubated in the DMEM media containing 1% dialyzed fetal bovine serum etc. The cell incubator was kept at constant temperature and constant humidity of 37° C., 5% CO2.
2. Activity Test for Human GPR119 Receptor
The human GPR119 receptor expressing cell was used to this test. Each of test compounds was added to be final concentrations of 0.1, 1, 10 μM in 96 well and tested in duplicate. A fixed amount of cell was added to each well of 96 well separately, and then treated with the test compound for 5 hours. After treatment of color development agent for 2 hours, the fluorescence value was determined with plate reader. To the luminous wavelength of control well, which was not treated with the sample, but in which only a vehicle […] was contained, the ratio of the luminous wavelength of test well, which was treated with the sample, was calculated, and then converted to obtain EC50 value.
3. Statistical Processing
All the results were expressed as mean±SD, and each test groups and the control group were compared using student's t-test to adjudge the effects of each test groups.

[1] = Solubility test of GPR 119 agonist compounds (Nephelostar); type: physicochemical; settings: aqueous with cosolvent or surfactant or cyclodextrin, kinetic from dmso stock
Procedure: 1. Method of Solubility Test
Each test compounds were dissolved in 5% DMSO aqueous solution as a solvent at several concentrations. When a laser was irradiated to the solution, the particles, which are not dissolved in the solvent, scatter the light. The level of the scattered light is dependent to the number of the particles, so the solubility of the test compound in the solution can be determined using the relationship. As the test equipment, Nephelostar was used.

Male C57/6J Jms mice = test: Glucose tolerance test in normal mouse; type: in vivo
Procedure: 1. Method of Glucose Tolerance Test
Male C57/6J Jms mice of 6-7 weeks of age were fasted for 16 hours before the start of glucose tolerance test. […]
Before compound administration, that is, at 0 hour, whole blood glucose level was determined using a Glucometer (ACCU-CHEK, Roche). At 30 minutes after compound administration, whole blood glucose level was determined once again, and 20% glucose (2 g/kg/10 mL) was administered orally. Whole blood glucose level was determined at 20, 40, 60, 80, and 120 minutes after 20% glucose administration. Whole blood glucose level vs. Time was graphicalized. Area under the curve (AUC) of whole blood glucose level was obtained using GraphPad Prism 4.0. The effect of glucose tolerance was adjudged with the corrected area under the curve (cAUC), on which the base value of glucose area under the curve was excluded.

[2] = pH 2, 5% DMSO aqueous solution, read-out: Solubility pH 2
[3] = pH 4, 5% DMSO aqueous solution, read-out: Solubility pH 4
[4] = pH 6, 5% DMSO aqueous solution, read-out: Solubility pH 6
[5] = pH 8, 5% DMSO aqueous solution, read-out: Solubility pH 8
[6] = 10 mg/kg, whole blood glucose AUC after oral glucose 2 g/kg, 10 mg/kg

Compound	EC50 (human GPR119 receptor) [nM]	activity for human GPR119 receptor (in words) (human GPR119 receptor)	solubility [1, 2] [µg/mL]	solubility [1, 3] [µg/mL]	solubility [1, 4] [µg/mL]	solubility [1, 5] [µg/mL]	Decrease % of AUC at 10 mg/kg (Male C57/6J Jms mice; 10 mg/kg, whole blood glucose AUC after oral glucose 2 g/kg)	Decrease % of AUC at 10 mg/kg (Male C57/6J Jms mice; [6]) [%]
C[C@@]1(C(N)=O)C[C@@H](O)CN1C(=O)c1ccc(-c2ccc(OCC3CCN(CC4(C(F)(F)F)CCC4)CC3)cn2)cc1F [Compound 1290, (2S,4R)-1-(2-fluoro-4-(5-((1-((1-(trifluoromethyl)cyclobutyl)methyl)piperidin-4-yl)methoxy)pyridin-2-yl)benzoyl)-4-hydroxy-2-methylpyrrolidin-2-carboxamide]	6	excellent activity	> 296	> 296	> 296	102 (≈ 172 µM)	–	–
CC(C)c1noc(N2CCC(COc3ccc(-c4ccc(S(C)(=O)=O)cc4)nc3)CC2)n1 [GSK-1292263, reference compound]	–	–	–	–	–	–	10~20%	–
CC(C)(CN1CCC(COc2ccc(-c3ccc(C(=O)N4C[C@H](O)C[C@H]4C(N)=O)cc3)nc2)CC1)C(F)(F)F [Compound 1322, (2S,4R)-4-hydroxy-1-(4-(5-((1-(3,3,3-trifluoro-2,2-dimethylpropyl)piperidin-4-yl)methoxy)pyridin-2-yl)benzoyl)pyrrolidin-2-carboxamide]	6	excellent activity	> 274	> 274	> 274	89 (≈ 162 µM)	–	–
CC(C)(CN1CCC(COc2ccc(-c3ccc(C(=O)N4C[C@H](O)C[C@H]4C(N)=O)c(F)c3)c(F)c2)CC1)C(F)(F)F [Compound 1240, (2S,4R)-1-(2′,3-difluoro-4′-((1-(3,3,3-trifluoro-2,2-dimethylpropyl)piperidin-4-yl)methoxy)biphenylcarbonyl)-4-hydroxypyrrolidin-2-carboxamide]	0.1	–	–	–	–	–	–	35
CC(C)(CN1CCC(COc2ccc(-c3ccc(C(=O)N4C[C@H](O)C[C@H]4C(N)=O)c(F)c3)cn2)CC1)C(F)(F)F [Compound 1208, (2S,4R)-1-(2-fluoro-4-(6-((1-(3,3,3-trifluoro-2,2-dimethylpropyl)piperidin-4-yl)methoxy)pyridin-3-yl)benzoyl)-4-hydroxypyrrolidin-2-carboxamide]	3	excellent activity	–	–	–	–	–	38
CC(C)(CN1CCC(COc2ccc(-c3ccc(C(=O)N4C[C@H](O)C[C@H]4C(N)=O)cc3F)nc2)CC1)C(F)(F)F [Compound 1323, (2S,4R)-1-(3-fluoro-4-(5-((1-(3,3,3-trifluoro-2,2-dimethylpropyl)piperidin-4-yl)methoxy)pyridin-2-yl)benzoyl)-4-hydroxypyrrolidin-2-carboxamide]	4	excellent activity	> 283	> 283	355 (≈ 627 µM)	88 (≈ 155 µM)	–	–
CC(C)(CN1CCC(COc2ccc(-c3ccc(C(=O)N4C[C@H](O)C[C@@]4(C)C(N)=O)c(F)c3)nc2)CC1)C(F)(F)F [Compound 1294, (2S,4R)-1-(2-fluoro-4-(5-((1-(3,3,3-trifluoro-2,2-dimethylpropyl)piperidin-4-yl)methoxy)pyridin-2-yl)benzoyl)-4-hydroxy-2-methylpyrrolidin-2-carboxamide]	19	excellent activity	> 290	> 290	203 (≈ 350 µM)	52 (≈ 89.6 µM)	–	–
CCC(F)(CC)CN1CCC(COc2ccc(-c3ccc(C(=O)N4C[C@H](O)C[C@@]4(C)C(N)=O)cc3F)nc2)CC1 [Compound 1292, (2S,4R)-1-(4-(5-((1-(2-ethyl-2-fluorobutyl)piperidin-4-yl)methoxy)pyridin-2-yl)-3-fluorobenzoyl)-4-hydroxy-2-methylpyrrolidin-2-carboxamide]	12	–	> 279	> 279	> 279	> 279	–	–
C[C@@]1(C(N)=O)C[C@@H](O)CN1C(=O)c1ccc(-c2ccc(OCC3CCN(CC4(C(F)(F)F)CCC4)CC3)cn2)c(F)c1 [Compound 1329, (2S,4R)-1-(3-fluoro-4-(5-((1-((1-(trifluoromethyl)cyclobutyl)methyl)piperidin-4-yl)methoxy)pyridin-2-yl)benzoyl)-4-hydroxy-2-methylpyrrolidin-2-carboxamide]	10	excellent activity	> 296	> 296	> 296	112 (≈ 189 µM)	–	–
CCC(F)(CC)CN1CCC(COc2ccc(-c3ccc(C(=O)N4C[C@H](O)C[C@H]4C(N)=O)cc3F)cc2)CC1 [Compound 1205]	2	–	> 271	> 271	157 (≈ 289 µM)	55 (≈ 101 µM)	–	–
C[C@@]1(C(N)=O)C[C@@H](O)CN1C(=O)c1ccc(-c2ccc(OCC3CCN(CC4(C(F)(F)F)CCC4)CC3)nc2)c(F)c1 [Compound 1325, (2S,4R)-1-(3-fluoro-4-(6-((1-((1-(trifluoromethyl)cyclobutyl)methyl)piperidin-4-yl)methoxy)pyridin-3-yl)benzoyl)-4-hydroxy-2-methylpyrrolidin-2-carboxamide]	14	excellent activity	> 296	> 296	> 296	114 (≈ 192 µM)	–	–
CC(C)(CN1CCC(COc2ccc(-c3ccc(C(=O)N4C[C@H](O)C[C@H]4C(N)=O)c(F)c3)nc2)CC1)C(F)(F)F [Compound 1268, (2S,4R)-1-(2-fluoro-4-(5-((1-(3,3,3-trifluoro-2,2-dimethylpropyl)piperidin-4-yl)methoxy)pyridin-2-yl)benzoyl)-4-hydroxypyrrolidin-2-carboxamide]	0.07	excellent activity	> 283	> 283	> 283	54 (≈ 95.3 µM)	–	–
NC(=O)[C@@H]1C[C@@H](O)CN1C(=O)c1ccc(-c2ccc(OCC3CCN(CC4(C(F)(F)F)CCC4)CC3)cn2)c(F)c1 [Compound 1286, (2S,4R)-1-(3-fluoro-4-(5-((1-((1-(trifluoromethyl)cyclobutyl)methyl)piperidin-4-yl)methoxy)pyridin-2-yl)benzoyl)-4-hydroxypyrrolidin-2-carboxamide]	3	excellent activity	> 289	> 289	> 289	108 (≈ 187 µM)	–	–
NC(=O)[C@@H]1C[C@@H](O)CN1C(=O)c1ccc(-c2ccc(OCC3CCN(CC4(C(F)(F)F)CCC4)CC3)cc2)cc1 [Compound 1199, (2S,4R)-4-hydroxy-1-(4′-((1-((1-(trifluoromethyl)cyclobutyl)methyl)piperidin-4-yl)methoxy)biphenylcarbonyl)pyrrolidin-2-carboxamide]	12	–	–	–	–	–	–	31
NC(=O)[C@@H]1CCCN1C(=O)c1ccc(-c2ccc(OCC3CCN(CC(F)(F)C(F)(F)F)CC3)cn2)cc1F [Compound 1264, (S)-1-(2-fluoro-4-(5-((1-(2,2,3,3,3-pentafluoropropyl)piperidin-4-yl)methoxy)pyridin-2-yl)benzoyl)pyrrolidin-2-carboxamide]	0.09	excellent activity	–	–	–	–	–	–

— patent publication US9776987B2, “Amide derivatives for GPR119 agonist” (CHONG KUN DANG PHARMACEUTICAL CORP., priority 2013, dated 2017)
